Tests used:
Type in all cases: cell-based
Settings in all cases: Compound 1 = 100
IL-8 = assay: IL-8, human (Tables 1-3)
IL-6 = assay: IL-6, mouse (Tables 1-3)
TLR4 [1] = target: TLR4 (Homo sapiens, UniProt O00206+Q9Y6Y9); assay: TLR4, human (Tables 1-3)
TLR4 [2] = target: T1, TLR4 (Mus musculus, UniProt Q9JHF9+Q9QUK6); assay: TLR4, mouse (Tables 1-3)
T1 sequence (Q9QUK6 26-835): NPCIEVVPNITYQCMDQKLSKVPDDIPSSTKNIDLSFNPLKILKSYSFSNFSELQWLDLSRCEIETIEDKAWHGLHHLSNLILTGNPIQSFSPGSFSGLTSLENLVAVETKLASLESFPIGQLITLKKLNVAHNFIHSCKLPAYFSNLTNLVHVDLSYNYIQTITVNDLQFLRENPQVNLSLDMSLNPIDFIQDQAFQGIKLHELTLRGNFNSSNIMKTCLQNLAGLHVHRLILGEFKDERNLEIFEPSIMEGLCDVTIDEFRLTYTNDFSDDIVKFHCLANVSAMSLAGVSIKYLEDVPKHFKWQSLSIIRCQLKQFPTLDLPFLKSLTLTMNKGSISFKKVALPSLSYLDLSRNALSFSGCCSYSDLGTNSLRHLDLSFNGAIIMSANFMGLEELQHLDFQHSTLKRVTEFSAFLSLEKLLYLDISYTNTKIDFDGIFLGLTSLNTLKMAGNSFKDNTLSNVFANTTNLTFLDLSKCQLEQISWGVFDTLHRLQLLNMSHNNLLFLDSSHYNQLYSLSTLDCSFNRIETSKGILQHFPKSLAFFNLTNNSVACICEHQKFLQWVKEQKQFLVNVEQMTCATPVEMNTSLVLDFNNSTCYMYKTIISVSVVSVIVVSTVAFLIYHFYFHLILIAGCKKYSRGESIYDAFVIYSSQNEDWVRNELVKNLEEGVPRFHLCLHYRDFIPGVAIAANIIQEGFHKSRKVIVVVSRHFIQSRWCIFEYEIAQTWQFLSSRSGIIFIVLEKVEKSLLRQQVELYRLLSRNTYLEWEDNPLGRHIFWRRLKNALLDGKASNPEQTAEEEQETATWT
T1 sequence (Q9JHF9 19-160): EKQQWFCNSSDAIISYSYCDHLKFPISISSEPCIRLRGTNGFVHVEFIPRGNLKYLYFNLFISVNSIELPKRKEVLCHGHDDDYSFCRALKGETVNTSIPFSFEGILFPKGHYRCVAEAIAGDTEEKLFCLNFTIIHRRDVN

IP-10 = assay: IP-10, mouse (Tables 1-3)
Also: test concentration or dose not given here.

Chain of TLR4 (Homo sapiens, UniProt O00206+Q9Y6Y9) (O00206 24-839): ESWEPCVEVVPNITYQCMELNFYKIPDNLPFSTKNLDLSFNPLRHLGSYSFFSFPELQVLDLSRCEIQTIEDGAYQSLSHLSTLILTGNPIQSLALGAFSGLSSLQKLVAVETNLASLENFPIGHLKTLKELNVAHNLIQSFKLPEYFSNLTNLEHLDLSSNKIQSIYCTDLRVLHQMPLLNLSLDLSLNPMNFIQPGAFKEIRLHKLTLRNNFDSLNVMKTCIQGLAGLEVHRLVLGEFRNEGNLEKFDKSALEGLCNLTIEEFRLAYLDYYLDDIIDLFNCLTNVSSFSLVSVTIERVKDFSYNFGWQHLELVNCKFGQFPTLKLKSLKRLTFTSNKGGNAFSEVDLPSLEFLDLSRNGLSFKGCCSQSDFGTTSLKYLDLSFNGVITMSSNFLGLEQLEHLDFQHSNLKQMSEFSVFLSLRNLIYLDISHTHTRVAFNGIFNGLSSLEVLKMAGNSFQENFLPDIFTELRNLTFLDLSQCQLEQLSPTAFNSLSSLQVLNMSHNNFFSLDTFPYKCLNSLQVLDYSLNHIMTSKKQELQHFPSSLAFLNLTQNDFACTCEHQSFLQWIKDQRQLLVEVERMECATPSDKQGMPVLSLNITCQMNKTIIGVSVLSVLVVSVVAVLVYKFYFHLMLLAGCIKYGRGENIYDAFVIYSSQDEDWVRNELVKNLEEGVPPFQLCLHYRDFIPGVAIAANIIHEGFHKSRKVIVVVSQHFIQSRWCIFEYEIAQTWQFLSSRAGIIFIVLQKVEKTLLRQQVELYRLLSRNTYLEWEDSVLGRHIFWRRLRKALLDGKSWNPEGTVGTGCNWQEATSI
Chain of TLR4 (Homo sapiens, UniProt O00206+Q9Y6Y9) (Q9Y6Y9 17-160 limits assumed): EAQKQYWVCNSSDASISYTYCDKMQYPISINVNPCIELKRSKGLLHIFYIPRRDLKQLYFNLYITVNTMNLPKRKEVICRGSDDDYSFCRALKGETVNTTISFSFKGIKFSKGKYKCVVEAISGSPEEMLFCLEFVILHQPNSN

SMILES | human IL-8 (IL-8; Table 1, R^3 series) | human IL-8 (IL-8; Table 2, R^2 series) | human IL-8 (IL-8; Table 3, R^1 series) | mouse IL-6 (IL-6; Table 1, R^3 series, footnotes not given) | mouse IL-6 (IL-6; Table 2, R^2 series) | mouse IL-6 (IL-6; Table 3, R^1 series) | human TLR4 (TLR4 [1]; Table 1, R^3 series) | human TLR4 (TLR4 [1]; Table 2, R^2 series) | human TLR4 (TLR4 [1]; Table 3, R^1 series) | mouse TLR4 (TLR4 [2]; Table 1, R^3 series) | mouse TLR4 (TLR4 [2]; Table 2, R^2 series) | mouse TLR4 (TLR4 [2]; Table 3, R^1 series) | mouse IP-10 (IP-10; Table 1, R^3 series) | mouse IP-10 (IP-10; Table 2, R^2 series) | mouse IP-10 (IP-10; Table 3, R^1 series)
O=C(CSc1nc2c([nH]c3ccccc32)c(=O)n1-c1ccccc1)NC1CCCCC1 [Compound 1] | 100 | 100 | 100 | 100 | 100 | 100 | 100 | 100 | 100 | 100 | 100 | 100 | 100 | 100 | 100
O=C(CSc1nc2c([nH]c3ccccc32)c(=O)n1-c1ccccc1)NC1CCCCCC1 [Compound 9] | – | 118 | – | – | 126 | – | – | 100 | – | – | 99 | – | – | 107 | –
O=C(CSc1nc2c([nH]c3ccccc32)c(=O)n1-c1ccccc1)NC1CCCCCCC1 [Compound 10] | – | 73 | – | – | 114 | – | – | 64 | – | – | 95 | – | – | 98 | –
O=C(CSc1nc2c([nH]c3ccccc32)c(=O)n1-c1ccccc1)NC1CCCC1 [Compound 11] | – | 5 | – | – | 53 | – | – | 23 | – | – | 28 | – | – | 52 | –
O=C(CSc1nc2c([nH]c3ccccc32)c(=O)n1-c1ccccc1)NC1CCC1 [Compound 12] | – | 19 | – | – | 35 | – | – | 32 | – | – | 18 | – | – | 66 | –
O=C(CSc1nc2c([nH]c3ccccc32)c(=O)n1-c1ccccc1)Nc1ccccc1 [Compound 13] | – | 15 | – | – | 11 | – | – | 31 | – | – | 21 | – | – | 44 | –
O=C(CSc1nc2c([nH]c3ccccc32)c(=O)n1-c1ccccc1)Nc1ccc(F)cc1 [Compound 14] | – | 107 | – | – | 103 | – | – | 108 | – | – | 81 | – | – | 70 | –
O=C(CSc1nc2c([nH]c3ccccc32)c(=O)n1-c1ccccc1)Nc1ccccc1F [Compound 15] | – | 61 | – | – | 36 | – | – | 71 | – | – | 43 | – | – | 54 | –
O=C(CSc1nc2c([nH]c3ccccc32)c(=O)n1-c1ccccc1)Nc1cccc(F)c1 [Compound 16] | – | 13 | – | – | 14 | – | – | 39 | – | – | 11 | – | – | 45 | –
Cc1cccc(NC(=O)CSc2nc3c([nH]c4ccccc43)c(=O)n2-c2ccccc2)c1 [Compound 17] | – | 54 | – | – | 19 | – | – | 116 | – | – | 13 | – | – | 55 | –
O=C(CSc1nc2c([nH]c3ccccc32)c(=O)n1-c1ccccc1)Nc1ccc2ccccc2c1 [Compound 18] | – | <1 | – | – | <1 | – | – | 21 | – | – | 2 | – | – | <1 | –
O=C(CSc1nc2c([nH]c3ccccc32)c(=O)n1-c1ccccc1)NCc1ccco1 [Compound 19] | – | 15 | – | – | 18 | – | – | 27 | – | – | 5 | – | – | 26 | –
O=C(CSc1nc2c([nH]c3ccccc32)c(=O)n1-c1ccccc1)Nc1ccc2cn[nH]c2c1 [Compound 20] | – | 7 | – | – | 3 | – | – | <1 | – | – | <1 | – | – | <1 | –
O=C(CSc1nc2c([nH]c3ccccc32)c(=O)n1-c1ccccc1)Nc1nccs1 [Compound 21] | – | 5 | – | – | 1 | – | – | 12 | – | – | 2 | – | – | <1 | –
CCNC(=O)CSc1nc2c([nH]c3ccccc32)c(=O)n1-c1ccccc1 [Compound 22] | – | 4 | – | – | <1 | – | – | 8 | – | – | <1 | – | – | <1 | –
CCCCCCNC(=O)CSc1nc2c([nH]c3ccccc32)c(=O)n1-c1ccccc1 [Compound 25] | – | 7 | – | – | <1 | – | – | 8 | – | – | 4 | – | – | <1 | –
